These results are taken from US4617336A, “Acylated calixarene stabilizers” (Ciba-Geigy Corporation, priority 1985, dated 1986).

Data set [1] is described as follows: Oxidation stability of polypropylene stretched tapes (2 mil) in forced draft oven at 115° C. To be noted: additive 0.2%. The method, then: The oxidation stability of milled polypropylene samples (prepared as in Examples 9 and 10), containing the indicated stabilizers, is measured on stretched tapes of 2 mil thickness on exposure to air in a forced draft oven at 115° C.

Data set [2] is described as follows: Oven ageing of stabilized polypropylene plaques (25 mil) at 150° C., oxidative stability.
Experimental: Unstabilized polypropylene powder (Hercules Profax 6501) is thoroughly blended with the indicated amount of additive. The blended materials are then milled on a two roll mill at 182° C. for 5 minutes, after which time the stabilized polypropylene is sheeted from the mill and allowed to cool. The milled polypropylene is then cut into pieces and compression molded on a hydraulic press at 220° C. and 175 psi (1.2×10^6 Pa) into 25 mil thick plaques. The plaques are then exposed to air in a force draft oven maintained at 150° C. The plaques are considered to have failed on showing the first signs of decomposition (e.g. cracking or brown edges).
Data set [3] can be described thus: Angle to break of oven aged ABS plaques (ASTM D747). The note with it: additive 0.225%. Set-up: key: NB: No break. As for the experimental part: This example illustrates the stabilization of acrylonitrile-butadiene-styrene (ABS) copolymer by the compounds of this invention. The testing procedure is as follows:
The antioxidant is dissolved in toluene and emulsified in water using Triton X-100 (Rohm & Haas) as a surfactant. The resultant emulsion is mixed well with ABS copolymer containing 40% butadiene (rubber). Steam coagulation of the emulsion/latex mixture yields 40% rubber stabilized ABS crumbs which are then dried at 80° C. for 30 minutes in a fluidized bed drier. The resultant crumbs are combined with styrene-acrylonitrile pellets on a two roll mill for six minutes. The resultant 15% rubber containing ABS milled sheet is compression molded at 400° F. into 60 mil plaques which are die cut into 1"×3" specimens. The sample plaques are then oven aged at 150° C. and the angle to break is monitored (ASTM D747). This consists of applying a set load through an angle with one stationary point and one moveable point, flexing the sample. The angle is monitored for several aging periods until the specimen breaks.

Data set [4] can be described thus: FS/BL (fluorescent sunlight/black light) exposure of polypropylene films (5 mil). The note with it: failure = 0.5 carbonyl absorbance. The source says:
The samples are exposed in a fluorescent sunlight/black light chamber until failure. Failure is taken as the hours required to reach 0.5 carbonyl absorbance by infrared spectroscopy on the exposed films.

Data set [5] is described as follows: Solubility in hydrocarbon solvents. The class given is physicochemical. To be noted: 24° to 25° C. As for the experimental part:
This example provides solubility data for the instant stabilizers in two hydrocarbon solvents. The indicated stabilizer is dissolved in the minimal amount of solvent at 24° to 25° C. The value range reported is percent by weight of additive in total weight of solution.

Where [6] appears, read: additive 0.2%, no co-stabilizer.

For “Para-carbooctadecyloxy-hydroxycalix(n)arene [Example 7]”, the entries for the “Oxidative Stability Time to Failure” value in data set [1], in data set [2] (additive 0.1% with 0.3% DSTDP) and in data set [2] (setting [6]) were 290 h, 250 h and 30 h, respectively.
With “Para-[2(carbooctadecyloxy)ethyl]hydroxycalix[n]arene [Example 4]”, the “Oxidative Stability Time to Failure” value in data set [2] (additive 0.1% with 0.3% DLTDP) was 340 h; in data set [2] (additive 0.3%, no co-stabilizer), 150 h. Moreover, the “Angle to Break (Oven Aged Samples)” value in data set [3] (0 Min at 150° C.) is “NB”; in data set [3] (30 Min at 150° C.) it was “NB”; in data set [3] (45 Min at 150° C.) it was “NB”; in data set [3] (60 Min at 150° C.), “NB”; in data set [3] (120 Min at 150° C.) it was 55. The “FS/BL Test Results (Hours to Failure)” value in data set [4] (additive 0.3% by weight) was 240 h.
In the case of “Para-[2-(carbododecyloxy)ethyl]hydroxycalix[n]arene [Example 3]”, the “wt/wt % Solubility in Toluene” value in data set [5] is listed as more than 50 wt/wt %. Also, the results for the “Oxidative Stability Time to Failure” value in data set [2] (additive 0.1% with 0.3% DLTDP) and in data set [2] (setting [6]) were 420 h and 150 h, respectively. For the same substance, in data set [4] (additive 0.2% by weight), the “FS/BL Test Results (Hours to Failure)” value turned out to be 230 h.
With “Para-carbobutoxy-hydroxycalix(n)arene [Example 8]”, the “Oxidative Stability Time to Failure” value amounted to 210 h in data set [2] (additive 0.1% with 0.3% DSTDP) and 20 h in data set [2] (setting [6]).
On the same counts, the results for “Para-carbododecyloxyhydroxy-calix(n)arene [Example 5]” are 210 h and 30 h.
